pIC50: −log10 of the molar value. Read-outs that look alike come from different tables or passages of the source.
Molecular target: T1, PDGF-receptor beta enzyme comprising the tyrosine kinase domain (Homo sapiens, UniProt P09619)
T1 construct: from amino acid 545 to 1106 of GenBank Access NO: AAA36427
Test: Inhibition of PDGF-receptor kinase activity (cell-free, PLC1 peptide, 33P Flashplate)
Assay type: biochemical
Conditions: for inhibition at 10 µM / pIC50 / Percent Inhibition @ 10 uM: PDGF-R kinase activity; for inhibition at 10 µM / Percent Inhibition @ 10 uM: compound at 10 uM; for inhibition at 10 µM: read-out: Percent Inhibition @ 10 uM; for pIC50: read-out: IC50; for IC50: read-out: IC50 (μM) on PDGF-R kinase activity
Procedure: PDGF-R kinase activity was assayed by its ability to phosphorylate one of its target proteins, PLCγ, in a cell-free system, in particular, a PLC1 peptide comprising the tyrosine residue where the phosphorylation occurs was used for the assay.
10× Kinase Buffer (500 mM Tris-HCl pH=8, 100 mM MgCl2, 1 mM Na3VO4); 10 mM DTT (final concentration at 1 mM in assay); 10 mM ATP (final concentration at 5 μM in assay); ^33P-γ-ATP (Cat. No.: NEG/602H. 2000-3000 Ci/mmol) purchased from NEN; Purified, soluble, recombinant PDGF-receptor beta enzyme comprising the tyrosine kinase domain (from amino acid 545 to 1106 of GenBank Access NO: AAA36427 ) at 0.4 mg/mL; Enzyme Dilution Buffer (50 mM Tris-HCl pH=8.0, 0.1% BSA); Wash/Stop Buffer (PBS +100 mM EDTA); NEN Streptavidin Flashplates (Cat. No.: SMP-103) which binds to the biotinylated PLC1 peptide but not the PDGF-R enzyme; PLC1 peptide (Biotin-[…]-Amide) at 1 mM in 50 mM Tris-HCL with pH of 8.0.
Reagents were first mixed according the following regimen:
The above reaction mixture was dispensed into each well of a Flashplate at 70 μl/well. To test the effect of a compound on PDGF-R kinase activity, the test compound either in a fixed concentration or in serially diluted concentrations in 100% DMSO was added to appropriate wells at 1 μl/well.
Enzyme PDGF-R was diluted in Enzyme dilution buffer as following:
The kinase reaction was initiated by adding 30 μl of diluted PDGF-R enzyme solution to each well on the Flashplate containing hot ATP and PLC1, except wells of column 12 rows E through H, which were used to calculate the plate background. The Flashplate was swirled to mix and was incubated at 30° C. for 60 minutes. Then, the reaction mixture was discarded and the Flashplate was washed 3 times each with 200 μl Wash/Stop Buffer. Subsequently, each well on the Flashplate was filled with 200 μl of Wash/Stop buffer. The amount of ^33P retained in each well was measured using a Packard TopCount after the plate was sealed with a transparent plate sealer.
The percentage of inhibition of the test compound on PDGF-R kinase activity is defined as […].
In order to test the potency of inhibition of present compounds, an IC50 for an individual compound was measured using the above procedure. As used herein, the IC50 for PDGF-R kinase activity refers to the concentration of an inhibitor at which the activity of the PDGF-R kinase is reduced by one-half as compared with reactions containing no inhibitor.

T1 sequence (P09619 545-1106): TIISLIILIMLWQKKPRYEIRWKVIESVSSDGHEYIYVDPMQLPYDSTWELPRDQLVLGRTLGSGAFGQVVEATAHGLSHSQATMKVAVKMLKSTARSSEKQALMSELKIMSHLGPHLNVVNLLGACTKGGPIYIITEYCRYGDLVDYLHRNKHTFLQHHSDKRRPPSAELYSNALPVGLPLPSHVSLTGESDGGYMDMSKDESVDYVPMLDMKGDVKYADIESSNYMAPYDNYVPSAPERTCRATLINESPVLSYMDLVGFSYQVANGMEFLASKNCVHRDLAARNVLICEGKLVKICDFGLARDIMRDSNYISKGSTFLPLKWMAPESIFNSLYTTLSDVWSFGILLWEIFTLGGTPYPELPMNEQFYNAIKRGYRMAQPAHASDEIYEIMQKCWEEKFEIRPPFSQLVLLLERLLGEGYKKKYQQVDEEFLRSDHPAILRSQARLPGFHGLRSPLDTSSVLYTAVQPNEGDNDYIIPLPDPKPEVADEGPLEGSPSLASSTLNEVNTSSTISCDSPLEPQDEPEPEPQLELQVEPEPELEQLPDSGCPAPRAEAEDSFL

inhibition at 10 µM	pIC50	Percent Inhibition @ 10 uM	IC50	SMILES
74.5%	5.88			COc1cccc([C@H](C)Nc2[nH]nc3c2Cc2cc(OC)c(OC)cc2-3)c1 (single isomer, unassigned) [Compound 324, (6,7-Dimethoxy-2,4-dihydro-indeno[1,2-c]pyrazol-3-yl)-[1-(3-methoxy-phenyl)-ethyl]-amine]
	7.41	100%		CCC1c2cc(OC)c(OC)cc2-c2[nH]nc(Nc3cccc(Br)c3)c21 (single isomer, unassigned) [Compound 482, (3-Bromo-phenyl)-(4-ethyl-6,7-dimethoxy-1,4-dihydro-indeno[1,2-c]pyrazol-3-yl)-amine]
	5.30	78.5%		CCC1c2cc(OC)c(OC)cc2-c2[nH]nc(Nc3cccc(Br)c3)c21 (single isomer, unassigned) [Compound 483, (3-Bromo-phenyl)-(4-ethyl-6,7-dimethoxy-1,4-dihydro-indeno[1,2-c]pyrazol-3-yl)-amine]
	7.68	102%		CCOc1cccc(Nc2[nH]nc3c2C(C)c2cc(OC)c(OC)cc2-3)c1 (single isomer, unassigned) [Compound 554, (6,7-Dimethoxy-4-methyl-2,4-dihydro-indeno[1,2-c]pyrazol-3-yl)-(3-ethoxy-phenyl)-amine]
	7.98	98%		CCOc1cccc(Nc2[nH]nc3c2C(CC)c2cc(OC)c(OC)cc2-3)c1 (single isomer, unassigned) [Compound 556, (3-Ethoxy-phenyl)-(4-ethyl-6,7-dimethoxy-2,4-dihydro-indeno[1,2-c]pyrazol-3-yl)-amine]
102%	7.43			COc1cc2c(cc1OC)C(C)c1c-2n[nH]c1Nc1cccnc1Cl (single isomer, unassigned) [Compound 559, (2-Chloro-pyridin-3-yl)-(6,7-dimethoxy-4-methyl-2,4-dihydro-indeno[1,2-c]pyrazol-3-yl)-amine]
	5.29	64%		CCOc1cccc(Nc2[nH]nc3c2C(C)c2cc(OC)c(OC)cc2-3)c1 (single isomer, unassigned) [Compound 569, (6,7-Dimethoxy-4-methyl-2,4-dihydro-indeno[1,2-c]pyrazol-3-yl)-(3-ethoxy-phenyl)-amine]
		66%	3.89 µM	CCOc1cccc(Nc2[nH]nc3c2C(CC)c2cc(OC)c(OC)cc2-3)c1 (single isomer, unassigned) [Compound 571, (3-Ethoxy-phenyl)-(4-ethyl-6,7-dimethoxy-2,4-dihydro-indeno[1,2-c]pyrazol-3-yl)-amine]
102%			0.429 µM	CCC1c2cc(OC)c(OC)cc2-c2n[nH]c(NCc3c(Cl)cccc3Cl)c21 (single isomer, unassigned) [Compound 585, (2,6-Dichloro-benzyl)-(4-ethyl-6,7-dimethoxy-2,4-dihydro-indeno[1,2-c]pyrazol-3-yl)-amine]

SMILES	inhibition at 10 µM	pIC50	Percent Inhibition @ 10 uM	IC50
CCC1c2cc(OC)c(OC)cc2-c2n[nH]c(Nc3cccc(Br)c3)c21 (single isomer, unassigned) [Compound 555, *R-(3-Bromo-phenyl)-(6,7-dimethoxy-4-ethyl-2,4-dihydro-indeno[1,2-c]pyrazol-3-yl)-amine]	97.5%	7.68		
COc1cc2c(cc1OC)C(C)c1c-2n[nH]c1Nc1cccc(Br)c1 (single isomer, unassigned) [Compound 568, *S-(3-Bromo-phenyl)-(6,7-dimethoxy-4-methyl-2,4-dihydro-indeno[1,2-c]pyrazol-3-yl)-amine]	78%	6.10		
CCC1c2cc(OC)c(OC)cc2-c2n[nH]c(Nc3cccc(Br)c3)c21 (single isomer, unassigned) [Compound 570, *S-(3-Bromo-phenyl)-(6,7-dimethoxy-4-ethyl-2,4-dihydro-indeno[1,2-c]pyrazol-3-yl)-amine]			77.5%	2.05 µM
